Experiments:
[1] = target: T1, Axl (Ba/F3 cells) (Homo sapiens, UniProt P30530); experiment: BaF3 viability assay, Axl-dependent cells; assay type: cell-based; conditions: read-out: Cellular Axl activity by Ba/F3 assay (IC50)
T1 sequence (P30530 1-894): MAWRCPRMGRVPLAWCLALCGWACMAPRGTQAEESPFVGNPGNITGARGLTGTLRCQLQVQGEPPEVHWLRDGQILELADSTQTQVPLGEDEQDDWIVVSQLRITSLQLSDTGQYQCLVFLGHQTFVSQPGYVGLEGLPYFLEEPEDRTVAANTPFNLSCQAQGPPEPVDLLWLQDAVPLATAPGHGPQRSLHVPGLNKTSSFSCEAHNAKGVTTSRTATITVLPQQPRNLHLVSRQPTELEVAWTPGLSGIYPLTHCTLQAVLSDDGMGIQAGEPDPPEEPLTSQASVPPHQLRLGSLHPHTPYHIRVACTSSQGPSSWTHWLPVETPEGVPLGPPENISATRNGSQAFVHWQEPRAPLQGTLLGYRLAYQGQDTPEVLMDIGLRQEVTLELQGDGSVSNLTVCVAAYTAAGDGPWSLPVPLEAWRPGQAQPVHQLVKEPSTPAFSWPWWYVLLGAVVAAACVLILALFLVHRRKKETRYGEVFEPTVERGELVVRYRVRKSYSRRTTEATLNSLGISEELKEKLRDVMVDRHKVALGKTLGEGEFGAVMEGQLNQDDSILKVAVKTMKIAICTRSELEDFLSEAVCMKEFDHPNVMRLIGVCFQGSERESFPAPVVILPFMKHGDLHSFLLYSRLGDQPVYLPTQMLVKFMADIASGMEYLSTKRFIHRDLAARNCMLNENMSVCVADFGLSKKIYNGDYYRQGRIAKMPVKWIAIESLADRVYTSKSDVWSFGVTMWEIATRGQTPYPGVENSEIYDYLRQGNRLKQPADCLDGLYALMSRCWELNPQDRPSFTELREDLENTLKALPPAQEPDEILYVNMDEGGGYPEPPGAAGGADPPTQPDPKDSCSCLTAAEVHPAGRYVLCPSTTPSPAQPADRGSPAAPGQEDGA
From the text: (§1) In this system, IL-3-dependent Ba/F3 cells are modified to express an activated recombinant kinase (in the present case Axl, Mer and CSF1R). Following removal of IL-3, the modified cells are dependent on the activity of the recombinant kinase for survival and proliferation. Inhibition of such kinase(s) through test compounds reduces survival and proliferation of the cells.
(§2) Cell lines were maintained in growth media (GM) consisting of RPMI 1640 supplemented with 10% FBS. Cells in logarithmic-phase growth were harvested and 5,000 cells were distributed into each well of a 384-well plate in 50 μl GM. Parental cells (or experimental assays where specified) were further supplemented with 2 ng/ml IL-3 to support cell growth and survival. Fifty nanoliters of the indicated reference standard or experimental compound were added to appropriate wells (in duplicate) and the cells were cultured for 48 h at 37° C./5% CO2. Viability was determined by adding 10 μl Cell Titer Glo and measuring luminescence, which is reported as relative light units (RLU) measured in counts per second. The following calculations and formulas are used for data analysis using GraphPad Prism software: The curve fitting was made using the Dose response curves-Inhibition.

[2] = target: T2, Mer (Ba/F3 cells) (Homo sapiens, UniProt Q12866); experiment: BaF3 viability assay, Mer-dependent cells; assay type: cell-based; conditions: read-out: Cellular Mer activity by Ba/F3 assay (IC50)
T2 sequence (Q12866 1-999): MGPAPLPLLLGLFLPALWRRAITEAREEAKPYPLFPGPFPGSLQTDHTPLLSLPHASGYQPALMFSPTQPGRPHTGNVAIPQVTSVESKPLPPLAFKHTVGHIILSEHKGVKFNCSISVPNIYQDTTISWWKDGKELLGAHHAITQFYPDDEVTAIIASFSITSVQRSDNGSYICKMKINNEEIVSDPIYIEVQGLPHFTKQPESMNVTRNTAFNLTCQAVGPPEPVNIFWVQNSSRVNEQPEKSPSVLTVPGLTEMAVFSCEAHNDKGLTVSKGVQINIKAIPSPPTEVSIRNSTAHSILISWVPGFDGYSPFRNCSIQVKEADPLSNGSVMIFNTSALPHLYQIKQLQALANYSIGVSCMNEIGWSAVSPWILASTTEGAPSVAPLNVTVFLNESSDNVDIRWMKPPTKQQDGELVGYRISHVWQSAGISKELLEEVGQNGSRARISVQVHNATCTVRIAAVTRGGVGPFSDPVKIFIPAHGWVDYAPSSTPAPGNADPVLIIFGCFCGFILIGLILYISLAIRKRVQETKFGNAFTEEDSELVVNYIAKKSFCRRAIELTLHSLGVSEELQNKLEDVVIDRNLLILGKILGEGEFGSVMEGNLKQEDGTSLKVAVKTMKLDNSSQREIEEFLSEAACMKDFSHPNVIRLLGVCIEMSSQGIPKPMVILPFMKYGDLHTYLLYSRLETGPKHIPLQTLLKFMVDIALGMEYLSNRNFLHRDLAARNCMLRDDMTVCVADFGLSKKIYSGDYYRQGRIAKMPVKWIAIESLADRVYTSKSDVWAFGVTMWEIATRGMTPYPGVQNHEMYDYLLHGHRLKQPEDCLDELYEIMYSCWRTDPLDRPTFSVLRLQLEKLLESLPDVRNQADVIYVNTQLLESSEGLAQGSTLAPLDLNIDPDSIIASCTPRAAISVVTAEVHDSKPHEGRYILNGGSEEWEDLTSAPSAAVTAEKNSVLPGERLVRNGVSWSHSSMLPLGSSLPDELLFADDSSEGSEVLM
From the text: as §1, §2

Structure (SMILES): COc1cc2nccc(Oc3ccc(NC(=O)c4nn(C[C@@H](C)O)cc4OCC(F)(F)F)nc3)c2cc1OC [Compound 29]
- GI50 [1]: < 1000 nM
- GI50 [2]: < 1000 nM

Structure (SMILES): COc1cc2nccc(Oc3ccc(NC(=O)c4nn(CCCO)cc4OCC(F)(F)F)nc3)c2cc1OC [Compound 18]
- GI50 [1]: < 1000 nM
- GI50 [2]: < 1000 nM

Structure (SMILES): COc1cc2nccc(Oc3ccc(NC(=O)c4nn(CC(C)O)cc4OCC(F)(F)F)nc3)c2cc1OC (stereo not drawn) [Compound 17]
- GI50 [1]: < 1000 nM
- GI50 [2]: < 1000 nM

Structure (SMILES): COc1cc2nccc(Oc3ccc(NC(=O)c4nn(C[C@H](C)O)cc4OCC(F)(F)F)nc3)c2cc1OC [Compound 30]
- GI50 [1]: < 1000 nM
- GI50 [2]: < 1000 nM

Structure (SMILES): CCCn1cc(OCCC(O)CO)c(C(=O)Nc2ccc(Oc3ccnc4cc(OC)c(OC)cc34)cn2)n1 (stereo not drawn) [Compound 15]
- GI50 [1]: < 1000 nM
- GI50 [2]: 1000 to 10000 nM

Structure (SMILES): CCCn1cc(OC(C)C)c(C(=O)Nc2ccc(Oc3ccnc4cc(OC)c(OC(F)(F)F)cc34)c(F)c2)n1 [Compound 35]
- GI50 [1]: ≥ 10000 nM
- GI50 [2]: ≥ 10000 nM
